Where a SMILES comes first, the peptide text is derived from it. [ ]: non-standard residue; d: D form. The star is where a group is joined. Palmitoyl = CCCCCCCCCCCCCCCC(=O)*
Target: T1, APJ receptor (Homo sapiens, UniProt P35414)
T1 construct: expressed in transfected cells; host or cells: Human TRex cells (doxycycline-inducible)
T1 sequence (P35414 1-380): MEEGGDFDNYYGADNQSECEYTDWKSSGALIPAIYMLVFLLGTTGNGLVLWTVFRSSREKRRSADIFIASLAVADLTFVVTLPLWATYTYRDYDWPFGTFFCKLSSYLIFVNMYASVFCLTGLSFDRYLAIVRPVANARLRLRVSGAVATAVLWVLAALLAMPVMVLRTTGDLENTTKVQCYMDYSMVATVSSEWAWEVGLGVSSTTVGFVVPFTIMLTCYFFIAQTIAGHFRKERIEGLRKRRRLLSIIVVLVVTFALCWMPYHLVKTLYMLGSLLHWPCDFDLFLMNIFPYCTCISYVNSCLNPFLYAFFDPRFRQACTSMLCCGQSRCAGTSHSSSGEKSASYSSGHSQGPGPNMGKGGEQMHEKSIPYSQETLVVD
Test: HTRF cAMP assay, inhibition of NKH477 stimulated cAMP in Human TRex cells expressing APJ upon doxycycline induction (APJ-hTREX)
Type: cell-based
Settings: read-out: % IA (@ 300 nM)
Source text: HTRF (homogeneous time resolved fluorescence) is a technology developed by Cisbio Bioassays based on TR-FRET (time-resolved fluorescence resonance energy transfer). Cisbio Bioassays has developed a wide selection of HTRF-based assays compatible with whole cells, thereby enabling functional assays to run under more physiological conditions. The IP-One assays are competitive immunoassays using cryptate-labeled anti-IP1 monoclonal antibody and d2-labeled IP1. IP1 is a relatively stable downstream metabolite of IP3, and accumulates in cells following Gq receptor activation.
cAMP kits based on a competitive immunoassay using cryptate-labeled anti-cAMP antibody and d2-labeled cAMP were used to assay the effects of APJ compounds of the present invention. […] Cells are treated with […] doxycycline and seeded in all white 96 well plates @ 40 k/well overnight.

Compound | percent intrinsic activity at 0.3 µM
CCCCCCCCCCCCCCCC(=O)N[C@H](C(=O)N[C@@H](Cc1ccccc1)C(=O)N[C@@H](Cc1ccccc1)C(=O)N[C@@H](CCCNC(=N)N)C(=O)N[C@@H](CO)C(=O)N[C@@H](CO)C(=O)N[C@@H](CCC(=O)O)C(=O)N[C@H](CCCCN)C(=O)N[C@@H](CCCNC(=N)N)C(=O)N[C@@H](CCCNC(=N)N)C(=O)N[C@@H](CO)C(=O)N[C@@H](C)C(=O)N[C@@H](CC(=O)O)C(=O)N[C@H](C(=O)N[C@@H](Cc1ccccc1)C(=O)N[C@H](C(N)=O)[C@@H](C)CC)[C@@H](C)CC)[C@@H](C)O [Compound 2] (Palmitoyl-TFFRSSE[dK]RRSADIFI-NH2) | 59%
CCCCCCCCCCCCCCCC(=O)N[C@@H](Cc1c[nH]cn1)C(=O)N[C@H](C(=O)N[C@@H](Cc1ccccc1)C(=O)N[C@@H](CCCNC(=N)N)C(=O)N[C@@H](CO)C(=O)N[C@@H](CO)C(=O)N[C@@H](CCC(=O)O)C(=O)N[C@H](CCCCN)C(=O)N[C@@H](CCCNC(=N)N)C(=O)N[C@@H](CCCNC(=N)N)C(=O)N[C@@H](CO)C(=O)N[C@@H](C)C(=O)N[C@@H](CC(=O)O)C(=O)N[C@H](C(=O)N[C@@H](Cc1ccccc1)C(=O)N[C@H](C(N)=O)[C@@H](C)CC)[C@@H](C)CC)C(C)C [Compound 7] (Palmitoyl-HVFRSSE[dK]RRSADIFI-NH2) | 50%
CCCCCCCCCCCCCCCC(=O)N[C@H](C(=O)N[C@@H](Cc1c[nH]cn1)C(=O)N[C@@H](Cc1ccccc1)C(=O)N[C@@H](CCCNC(=N)N)C(=O)N[C@@H](CO)C(=O)N[C@@H](CO)C(=O)N[C@@H](CCC(=O)O)C(=O)N[C@H](CCCCN)C(=O)N[C@@H](CCCNC(=N)N)C(=O)N[C@@H](CCCNC(=N)N)C(=O)N[C@@H](CO)C(=O)N[C@@H](C)C(=O)N[C@@H](CC(=O)O)C(=O)N[C@H](C(=O)N[C@@H](Cc1ccccc1)C(=O)N[C@H](C(N)=O)[C@@H](C)CC)[C@@H](C)CC)[C@@H](C)O [Compound 8] (Palmitoyl-THFRSSE[dK]RRSADIFI-NH2) | 63%
CCCCCCCCCCCCCCCC(=O)N[C@H](C(=O)N[C@H](C(=O)N[C@@H](Cc1ccccc1)C(=O)N[C@@H](Cc1c[nH]cn1)C(=O)N[C@@H](CO)C(=O)N[C@@H](CO)C(=O)N[C@@H](CCC(=O)O)C(=O)N[C@H](CCCCN)C(=O)N[C@@H](CCCNC(=N)N)C(=O)N[C@@H](CCCNC(=N)N)C(=O)N[C@@H](CO)C(=O)N[C@@H](C)C(=O)N[C@@H](CC(=O)O)C(=O)N[C@H](C(=O)N[C@@H](Cc1ccccc1)C(=O)N[C@H](C(N)=O)[C@@H](C)CC)[C@@H](C)CC)C(C)C)[C@@H](C)O [Compound 10] (Palmitoyl-TVFHSSE[dK]RRSADIFI-NH2) | 55%
CCCCCCCCCCCCCCCC(=O)N[C@H](C(=O)N[C@H](C(=O)N[C@@H](Cc1ccccc1)C(=O)N[C@@H](CCCNC(=N)N)C(=O)N[C@@H](CO)C(=O)N[C@@H](CO)C(=O)N[C@@H](Cc1c[nH]cn1)C(=O)N[C@H](CCCCN)C(=O)N[C@@H](CCCNC(=N)N)C(=O)N[C@@H](CCCNC(=N)N)C(=O)N[C@@H](CO)C(=O)N[C@@H](C)C(=O)N[C@@H](CC(=O)O)C(=O)N[C@H](C(=O)N[C@@H](Cc1ccccc1)C(=O)N[C@H](C(N)=O)[C@@H](C)CC)[C@@H](C)CC)C(C)C)[C@@H](C)O [Compound 12] (Palmitoyl-TVFRSSH[dK]RRSADIFI-NH2) | 73%
CCCCCCCCCCCCCCCC(=O)N[C@H](C(=O)N[C@H](C(=O)N[C@@H](Cc1ccccc1)C(=O)N[C@@H](CCCNC(=N)N)C(=O)N[C@@H](CO)C(=O)N[C@@H](CO)C(=O)N[C@@H](CCC(=O)O)C(=O)N[C@H](CCCCN)C(=O)N[C@@H](Cc1c[nH]cn1)C(=O)N[C@@H](CCCNC(=N)N)C(=O)N[C@@H](CO)C(=O)N[C@@H](C)C(=O)N[C@@H](CC(=O)O)C(=O)N[C@H](C(=O)N[C@@H](Cc1ccccc1)C(=O)N[C@H](C(N)=O)[C@@H](C)CC)[C@@H](C)CC)C(C)C)[C@@H](C)O [Compound 13] (Palmitoyl-TVFRSSE[dK]HRSADIFI-NH2) | 56%

Now from value to molecule:

percent intrinsic activity at 0.3 µM | Compound
59% | CCCCCCCCCCCCCCCC(=O)N[C@H](C(=O)N[C@H](C(=O)N[C@@H](Cc1ccccc1)C(=O)N[C@@H](CCC(N)=O)C(=O)N[C@@H](CO)C(=O)N[C@@H](CO)C(=O)N[C@@H](CCC(=O)O)C(=O)N[C@H](CCCCN)C(=O)N[C@@H](CCCNC(=N)N)C(=O)N[C@@H](CCCNC(=N)N)C(=O)N[C@@H](CO)C(=O)N[C@@H](C)C(=O)N[C@@H](CC(=O)O)C(=O)N[C@H](C(=O)N[C@@H](Cc1ccccc1)C(=O)N[C@H](C(N)=O)[C@@H](C)CC)[C@@H](C)CC)C(C)C)[C@@H](C)O [Compound 22] (Palmitoyl-TVFQSSE[dK]RRSADIFI-NH2)
55% | CCCCCCCCCCCCCCCC(=O)N[C@H](C(=O)N[C@H](C(=O)N[C@@H](Cc1ccccc1)C(=O)N[C@@H](CCCNC(=N)N)C(=O)N[C@@H](CCC(N)=O)C(=O)N[C@@H](CO)C(=O)N[C@@H](CCC(=O)O)C(=O)N[C@H](CCCCN)C(=O)N[C@@H](CCCNC(=N)N)C(=O)N[C@@H](CCCNC(=N)N)C(=O)N[C@@H](CO)C(=O)N[C@@H](C)C(=O)N[C@@H](CC(=O)O)C(=O)N[C@H](C(=O)N[C@@H](Cc1ccccc1)C(=O)N[C@H](C(N)=O)[C@@H](C)CC)[C@@H](C)CC)C(C)C)[C@@H](C)O [Compound 23] (Palmitoyl-TVFRQSE[dK]RRSADIFI-NH2)
45% | CCCCCCCCCCCCCCCC(=O)N[C@H](C(=O)N[C@H](C(=O)N[C@@H](Cc1ccccc1)C(=O)N[C@@H](CCCNC(=N)N)C(=O)N[C@@H](CO)C(=O)N[C@@H](CO)C(=O)N[C@@H](CCC(N)=O)C(=O)N[C@H](CCCCN)C(=O)N[C@@H](CCCNC(=N)N)C(=O)N[C@@H](CCCNC(=N)N)C(=O)N[C@@H](CO)C(=O)N[C@@H](C)C(=O)N[C@@H](CC(=O)O)C(=O)N[C@H](C(=O)N[C@@H](Cc1ccccc1)C(=O)N[C@H](C(N)=O)[C@@H](C)CC)[C@@H](C)CC)C(C)C)[C@@H](C)O [Compound 25] (Palmitoyl-TVFRSSQ[dK]RRSADIFI-NH2)
44% | CCCCCCCCCCCCCCCC(=O)N[C@H](C(=O)N[C@@H](CC(=O)O)C(=O)N[C@@H](Cc1ccccc1)C(=O)N[C@@H](CCCNC(=N)N)C(=O)N[C@@H](CO)C(=O)N[C@@H](CO)C(=O)N[C@@H](CCC(=O)O)C(=O)N[C@H](CCCCN)C(=O)N[C@@H](CCCNC(=N)N)C(=O)N[C@@H](CCCNC(=N)N)C(=O)N[C@@H](CO)C(=O)N[C@@H](C)C(=O)N[C@@H](CC(=O)O)C(=O)N[C@H](C(=O)N[C@@H](Cc1ccccc1)C(=O)N[C@H](C(N)=O)[C@@H](C)CC)[C@@H](C)CC)[C@@H](C)O [Compound 34] (Palmitoyl-TDFRSSE[dK]RRSADIFI-NH2)
49% | CCCCCCCCCCCCCCCC(=O)N[C@H](C(=O)N[C@H](C(=O)N[C@@H](Cc1ccccc1)C(=O)N[C@@H](CCCNC(=N)N)C(=O)N[C@@H](CC(=O)O)C(=O)N[C@@H](CO)C(=O)N[C@@H](CCC(=O)O)C(=O)N[C@H](CCCCN)C(=O)N[C@@H](CCCNC(=N)N)C(=O)N[C@@H](CCCNC(=N)N)C(=O)N[C@@H](CO)C(=O)N[C@@H](C)C(=O)N[C@@H](CC(=O)O)C(=O)N[C@H](C(=O)N[C@@H](Cc1ccccc1)C(=O)N[C@H](C(N)=O)[C@@H](C)CC)[C@@H](C)CC)C(C)C)[C@@H](C)O [Compound 36] (Palmitoyl-TVFRDSE[dK]RRSADIFI-NH2)
50% | CCCCCCCCCCCCCCCC(=O)N[C@H](C(=O)N[C@H](C(=O)N[C@@H](Cc1ccccc1)C(=O)N[C@@H](CCCNC(=N)N)C(=O)N[C@@H](CO)C(=O)N[C@@H](CC(=O)O)C(=O)N[C@@H](CCC(=O)O)C(=O)N[C@H](CCCCN)C(=O)N[C@@H](CCCNC(=N)N)C(=O)N[C@@H](CCCNC(=N)N)C(=O)N[C@@H](CO)C(=O)N[C@@H](C)C(=O)N[C@@H](CC(=O)O)C(=O)N[C@H](C(=O)N[C@@H](Cc1ccccc1)C(=O)N[C@H](C(N)=O)[C@@H](C)CC)[C@@H](C)CC)C(C)C)[C@@H](C)O [Compound 37] (Palmitoyl-TVFRSDE[dK]RRSADIFI-NH2)
83% | CCCCCCCCCCCCCCCC(=O)N1CCC[C@H]1C(=O)N[C@H](C(=O)N[C@@H](Cc1ccccc1)C(=O)N[C@@H](CCCNC(=N)N)C(=O)N[C@@H](CO)C(=O)N[C@@H](CO)C(=O)N[C@@H](CCC(=O)O)C(=O)N[C@H](CCCCN)C(=O)N[C@@H](CCCNC(=N)N)C(=O)N[C@@H](CCCNC(=N)N)C(=O)N[C@@H](CO)C(=O)N[C@@H](C)C(=O)N[C@@H](CC(=O)O)C(=O)N[C@H](C(=O)N[C@@H](Cc1ccccc1)C(=O)N[C@H](C(N)=O)[C@@H](C)CC)[C@@H](C)CC)C(C)C [Compound 42] (Palmitoyl-PVFRSSE[dK]RRSADIFI-NH2)
39% | CCCCCCCCCCCCCCCC(=O)N[C@H](C(=O)N1CCC[C@H]1C(=O)N[C@@H](Cc1ccccc1)C(=O)N[C@@H](CCCNC(=N)N)C(=O)N[C@@H](CO)C(=O)N[C@@H](CO)C(=O)N[C@@H](CCC(=O)O)C(=O)N[C@H](CCCCN)C(=O)N[C@@H](CCCNC(=N)N)C(=O)N[C@@H](CCCNC(=N)N)C(=O)N[C@@H](CO)C(=O)N[C@@H](C)C(=O)N[C@@H](CC(=O)O)C(=O)N[C@H](C(=O)N[C@@H](Cc1ccccc1)C(=O)N[C@H](C(N)=O)[C@@H](C)CC)[C@@H](C)CC)[C@@H](C)O [Compound 43] (Palmitoyl-TPFRSSE[dK]RRSADIFI-NH2)

— US20150011466A1, “APJ Receptor Compounds” (priority 2012, published 2015)
